The results in this text go back to patent US20080118489A1, “Charge-Modified Lysozyme Antimicrobial Compositions, Surfactants, and Methods for Infections and Cystic Fibrosis” (priority 2005, published 2008).

Converted amounts (≈) assume the structure as drawn.

In test [1] the test system is Pseudomonas aeruginosa (PA01). The experiment in a line: Bacterial killing assay, tobramycin with or without mucin. The format is cell-based. The method, then:
Tobramycin sequestration was also measured via bacteriological killing assays. In these bacterial killing assay experiments Pseudomonas aeruginosa (PA01), the primary bacteria responsible for infection in CF patients, was incubated in the presence of mucin, DNA, tobramycin, lipid or various mixtures of these four materials. Killing assays were performed in the following manner: PA01 was grown in cation adjusted Mueller-Hinton media to a concentration greater than 5×10^8, sedimented by centrifugation and resuspended in a buffered solution of 5 mM Tris 5 mM PIPES and 100 mM NaCl at pH 7.2. A quantity of […]. of PAO1 were incubated for 3.5 hours in the buffered salt solution with varied concentrations of tobramycin, DNA, mucin, and lipids. The mucin concentrations were either 0 mg/ml (control) or 10 mg/ml which is near the physiologically measured concentrations of mucin. Lipids added to the bacterial solution were added in varying concentrations in order to determine the amount needed to release tobramycin from its strong interaction with mucin and/or DNA. The bacterial solution was serially diluted and plated on MH-agar plates. Plates were incubated overnight and the number of bacterial colonies counted.

The next test concerns Calf thymus (CT) DNA. As to the kind of experiment: SAXS of DNA + tobramycin (+ cationic lipid) suspensions. In kind it is binding. From the text: For our studies of the sequestration of aminoglycoside antibiotics by model CF sputum and subsequent release by the administration of surfactants we used the following materials. The aminoglycoside antibiotic used in our experiments was Tobramycin (Sigma Aldrich), commonly used to treat infections of Pseudomonas aeruginosa in CF patients. […] For the DNA+tobramycin experiments we used Calf thymus (CT) DNA (USB Corp. Cleveland Ohio), purified it using standard techniques, and resuspended it in an aqueous solution of 100 mM NaCl 5 mM Tris and 5 mM PIPES adjusted to pH 7. DNA has a charge of approximately −2/base pair.
Surfactant materials used in the present experiments were a mixture of two lipids DOTAP (1,2-Dioleoyl-3-Trimethylammonium-Propane) and DOPE (1,2-Dioleoyl-sn-Glycero-3-Phosphoethanolamine) (Avanti Polar lipids, Alabaster Al.) in mass ratios of about 70:30 and about 25:75. DOTAP is a cationic lipid (charge of +1) with no curvature, and DOPE is a neutral lipid with negative curvature. Briefly, the lipids were first dissolved in chloroform, then dried under nitrogen and redissolved in an aqueous solution. The aqueous salt solution was then sonicated to form unilamellar lipid vescicles, and filtered through 0.2 micron pores.
Aminoglycoside antibiotic sequestration by negatively charged bio-polymers in respiratory mucous of CF patients was measured via two techniques. The first method was to use x-ray diffraction techniques to discern the structure of suspensions of mixtures of biopolymers and antibiotic. Specific x-ray diffraction studies were done to determine the structure of mixtures of the DNA with tobramycin and the lipid mixture. The isoelectric DNA-lipid-monovalent salt solutions were sealed in 1.5 mm quartz capillaries (Hilgenberg GmbH; Malsfeld, Germany) and mixed thoroughly by centrifugation. The approximate sample volume in the capillary was 30 μl-60 μl. SAXS experiments were performed as described previously. Tobramycin has charge of approximately +5 at physiological pH, whereas DNA is negatively charged, thus when the ratio of net DNA charge is approximately equal to the net tobramycin charge (T/D˜1), the tobramycin condenses the DNA. The resulting structure is a bundle of DNA. The structures observed via x-ray diffraction indicate whether or not the tobramycin is sequestered with the DNA or free in suspension. The present invention uses positively charged lipids to replace the tobramycin in these bundles, thereby increasing the efficacy of the antibiotic. Consequently, our experiments used a fixed DNA concentration of 3 mg/ml (x-ray experiments) and a varied concentration of tobramycin and/or lipid. Concentrations are varied such that the ratio of positive to negative charges is known. Similar x-ray diffraction studies can be conducted wherein mucin, instead of DNA, is the sequestration agent to examine mucin+tobramycin+lipid complexes and kinetics.

A further test deals with T1, F-actin (Oryctolagus cuniculus, UniProt P68135).
T1 construct: prepared from a lyophilized powder of rabbit skeletal muscle; purchased Cytoskeleton, Inc. (Denver, Col.); host or cells: rabbit skeletal muscle (tissue-derived)
The experiment in a line: SAXS of F-actin / hen egg white lysozyme bundles. In kind it is binding, rabbit. The protocol:
Monomeric G-actin (MW 42,000) was prepared from a lyophilized powder of rabbit skeletal muscle purchased from Cytoskeleton, Inc. (Denver, Col.). The non-polymerizing G-actin solution contained a 5 mM TRIS buffer at pH 8.0, with 0.2 mM CaCl2, 0.5 mM ATP, and 0.2 mM DTT and 0.01% NaN3. G-actin (2 mg/ml) was polymerized into F-actin (linear charge density λA˜−1 e /2.5 Å at pH 7) upon the addition of salt (100 mM KCl). Human plasma gelsolin (Cytoskeleton, Inc., Denver, Col.) was used to control the average F-actin length between 0.1 μm to 10 μm. The filaments were treated with phalloidin (Sigma Aldrich, St. Louis, Mo., MW 789.2) to prevent actin depolymerization and resuspended to a final concentration of ˜26.67 mg/ml using Millipore (Billerica, Mass.) H2O (18.2MΩ). Hen Egg White Lysozyme (MW 14,300, Sigma Aldrich, St. Louis, Mo.) was dissolved in Millipore H2O (18.2MΩ) to a final concentration ˜25 mg/ml. Lysozyme carries a pH dependent charge of +9 or +10 and has dimensions of approximately ˜26Å×26Å×45 Å.
The F-actin—lysozyme isoelectric point is found at a concentration ratio of ˜2.5:1 F-actin:lysozyme. X-ray samples were prepared at various F-actin:lysozyme concentration ratios on either side of the isoelectric point, including 2:1, 2.5:1, 3:1, and 5:1. […]

Consider `NC[C@H]1O[C@H](O[C@H]2[C@H](O)[C@@H](O[C@H]3O[C@H](CO)[C@@H](O)[C@H](N)[C@H]3O)[C@H](N)C[C@@H]2N)[C@H](N)C[C@@H]1O` [tobramycin], for which the “tobramycin concentration until which mucin inhibits killing ability” value in test [1] (10 mg/ml mucin) was 20 × the minimal inhibitory concentration (MIC). Moreover, the MIC in test [1] (Pseudomonas aeruginosa, 3.5 hours, 5 mM Tris 5 mM PIPES 100 mM NaCl pH 7.2, read-out: minimal inhibitory concentration (MIC)) was about 5 µg/mL (≈ 10.7 µM). Moreover, in test [1] (sequestration by anionic polyelectrolytes of CF sputum), the “biological accessibility, fraction of the available dose” value is given as 1/20. In addition, in the test with Calf thymus (CT) DNA (DNA 3 mg/ml, pH 7), the “ratio of tobramycin charge to DNA charge (T/D) at which bundled DNA peak appears” value is about 1 and the “tobramycin concentration at which bundled DNA peak appears” value is listed as 1.9 mM. Besides, the “preference of interaction, DNA versus F-actin” value with Calf thymus (CT) DNA (F-actin 5 mg/ml + DNA 1 mg/ml + tobramycin) was “preferentially interacts with DNA over F-actin”. For the same compound, in the test on Calf thymus (CT) DNA (T/D approaching 1, L/D=2), the “sequestration of tobramycin by DNA at raised lipid concentration” value is “again unsequestered by the DNA”. Besides, the “sequestration of tobramycin by DNA without lipid” value in the test on Calf thymus (CT) DNA (T/D=0.5 and T/D=0.9, absence of lipids) is reported as “sequestered by DNA”. For the same compound, in the test with Calf thymus (CT) DNA (lipid concentration greater than or equal to that required for DNA charge neutralization), the “sequestration of tobramycin by DNA with cationic lipid” value is listed as “not sequestered”.
Consider “lysozyme: Hen Egg White Lysozyme (MW 14,300, Sigma Aldrich)”, for which the “NaCl concentration up to which the F-actin-lysozyme close pack bundling peak increases” value with F-actin is on record as about 150 mM. In the test with F-actin (NaCl), the “salt concentration above which the lysozyme-actin bundling peak disappears” value is recorded as “above 200 mM”.
